Reference: ChEMBL document CHEMBL5505990, “Novel aroyl guanidine anti-trypanosomal compounds that exert opposing effects on parasite energy metabolism” (Eur J Med Chem, 2024)
One block for each compound: values may come before it. Activity calls are given as the source filed them. The calls are words filed in the database; no cut-off is given here.

Legend:
[1] = tested on: Trypanosoma brucei brucei; test: Anti-trypanosomal activity against Trypanosoma brucei brucei at 10 uM relative to control; type: functional
[2] = Cytotoxicity against HEK293 cells assessed as inhibition of cell viability at 83 uM relative to control; type: toxicity, cell-based; conditions: human, read-out: INH
[3] = Cytotoxicity against HEK293 cells; type: toxicity, cell-based; conditions: human
[4] = Selectivity ratio of IC50 for HEK293 cells to IC50 for Trypanosoma brucei brucei; type: toxicity; conditions: human, read-out: Ratio IC50
[5] = tested on: Trypanosoma brucei brucei; test: Anti-trypanosomal activity against Trypanosoma brucei brucei; type: functional, organism-based
[6] = tested on: Trypanosoma brucei brucei; test: Effect on stearoyl-CoA level in bloodstream Trypanosoma brucei brucei 427 assessed as increase in pyruvate level at 1 uM incubated for 5 hrs; type: functional
[7] = tested on: Trypanosoma brucei brucei; test: Effect on acetyl-carnitine level in bloodstream Trypanosoma brucei brucei 427 assessed as increase in pyruvate level at 1 uM incubated for 5 hrs; type: functional
[8] = tested on: Trypanosoma brucei brucei; test: Effect on free carnitine level in bloodstream Trypanosoma brucei brucei 427 assessed as increase in pyruvate level at 1 uM incubated for 5 hrs; type: functional
[9] = tested on: Trypanosoma brucei brucei; test: Disruption of nucleotide metabolism in bloodstream Trypanosoma brucei brucei 427 assessed as depletion of ATP at 1 uM incubated for 5 hrs; type: functional, organism-based
[10] = tested on: Trypanosoma brucei brucei; test: Disruption of nucleotide metabolism in bloodstream Trypanosoma brucei brucei 427 assessed as depletion of deoxy-GTP at 1 uM incubated for 5 hrs; type: functional, organism-based
[11] = tested on: Trypanosoma brucei brucei; test: Disruption of nucleotide metabolism in bloodstream Trypanosoma brucei brucei 427 assessed as depletion of UTP at 1 uM incubated for 5 hrs; type: functional, organism-based
[12] = tested on: Trypanosoma brucei brucei; test: Downregulation of 6-phosphogluconate level in bloodstream Trypanosoma brucei brucei 427 assessed as increase in pyruvate level at 1 uM incubated for 5 hrs; type: functional
[13] = tested on: Trypanosoma brucei brucei; test: Disruption of nucleotide metabolism in bloodstream Trypanosoma brucei brucei 427 assessed as depletion of deoxy-CTP at 1 uM incubated for 5 hrs; type: functional, organism-based
[14] = tested on: Trypanosoma brucei brucei; test: Induction of glycolysis in bloodstream Trypanosoma brucei brucei 427 assessed as increase in pyruvate level at 1 uM incubated for 5 hrs; type: functional
[15] = tested on: Trypanosoma brucei brucei; test: Downregulation of NADPH level in bloodstream Trypanosoma brucei brucei 427 assessed as increase in pyruvate level at 1 uM incubated for 5 hrs; type: functional
[16] = tested on: Trypanosoma brucei brucei; test: Induction of glycolysis in bloodstream Trypanosoma brucei brucei 427 assessed as increase in succinate level at 1 uM incubated for 5 hrs; type: functional
[17] = tested on: Trypanosoma brucei brucei; test: Disruption of nucleotide metabolism in bloodstream Trypanosoma brucei brucei 427 assessed as depletion of CTP at 1 uM incubated for 5 hrs; type: functional, organism-based
[18] = tested on: Trypanosoma brucei brucei; test: Effect on palmitoyl-CoA level in bloodstream Trypanosoma brucei brucei 427 assessed as increase in pyruvate level at 1 uM incubated for 5 hrs; type: functional
[19] = tested on: Trypanosoma brucei brucei; test: Induction of glycolysis in bloodstream Trypanosoma brucei brucei 427 assessed as increase in glycerol level at 1 uM incubated for 5 hrs; type: functional
[20] = tested on: Trypanosoma brucei brucei; test: Disruption of nucleotide metabolism in bloodstream Trypanosoma brucei brucei 427 assessed as depletion of GTP at 1 uM incubated for 5 hrs; type: functional, organism-based
[21] = tested on: Trypanosoma brucei brucei; test: Disruption of nucleotide metabolism in bloodstream Trypanosoma brucei brucei 427 assessed as depletion of deoxy-UTP at 1 uM incubated for 5 hrs; type: functional, organism-based
[22] = tested on: Trypanosoma brucei brucei; test: Upregulation of glycolytic flux in bloodstream Trypanosoma brucei brucei 427 assessed as increase in pyruvate level at 1 uM incubated for 5 hrs; type: functional
[23] = tested on: Trypanosoma brucei brucei; test: Effect on free CoA level in bloodstream Trypanosoma brucei brucei 427 assessed as increase in pyruvate level at 1 uM incubated for 5 hrs; type: functional
[24] = tested on: Trypanosoma brucei brucei; test: Disruption of nucleotide metabolism in bloodstream Trypanosoma brucei brucei 427 assessed as depletion of deoxy-ATP at 1 uM incubated for 5 hrs; type: functional, organism-based
[25] = tested on: Trypanosoma brucei brucei; test: Effect on acetyl-CoA level in bloodstream Trypanosoma brucei brucei 427 assessed as increase in pyruvate level at 1 uM incubated for 5 hrs; type: functional
[26] = tested on: Trypanosoma brucei brucei; test: Upregulation of carnitine to acetyl-carnitine ratio in bloodstream Trypanosoma brucei brucei 427 assessed as increase in pyruvate level at 1 uM incubated for 5 hrs; type: functional
[27] = tested on: Trypanosoma brucei brucei; test: Disruption of nucleotide metabolism in bloodstream Trypanosoma brucei brucei 427 assessed as accumulation of purine/pyrimidine base forms at 1 uM incubated for 5 hrs; type: functional, organism-based
[28] = tested on: Trypanosoma brucei brucei; test: Disruption of nucleotide metabolism in bloodstream Trypanosoma brucei brucei 427 assessed as accumulation of NDP at 1 uM incubated for 5 hrs; type: functional, organism-based
[29] = tested on: Trypanosoma brucei brucei; test: Disruption of nucleotide metabolism in bloodstream Trypanosoma brucei brucei 427 assessed as accumulation of nucleosides at 1 uM incubated for 5 hrs; type: functional, organism-based
[30] = tested on: Trypanosoma brucei brucei; test: Disruption of nucleotide metabolism in bloodstream Trypanosoma brucei brucei 427 assessed as accumulation of NMP at 1 uM incubated for 5 hrs; type: functional, organism-based
[31] = tested on: Trypanosoma brucei brucei; test: Disruption of nucleotide metabolism in bloodstream Trypanosoma brucei brucei 427 assessed as depletion of NTP at 1 uM incubated for 5 hrs; type: functional, organism-based

SMILES: CCCc1ccccc1/N=C(\NCCN1CCOCC1)NC(=O)c1ccccc1
inhibition at 10 µM [1]: 72%
cytotoxicity at 83 µM [2]: 58%

SMILES: COc1ccccc1/N=C(\NCCN1CCOCC1)NC(=O)c1ccccc1
IC50 [5]: > 10 µM

SMILES: CCc1ccccc1/N=C(\NCCN1CCOCC1)NC(=O)c1cccc(C)c1
IC50 [3]: > 83 µM
selectivity ratio [4]: > 64
IC50 [5]: 1.3 µM

SMILES: CCc1ccccc1/N=C(\NCCN1CCOCC1)NC(=O)c1ccc(F)c(OC)c1
cytotoxicity at 83 µM [2]: 94%
IC50 [5]: 0.75 µM

SMILES: CCc1ccccc1/N=C(\NCCN1CCOCC1)NC(=O)c1cccc(O)c1
IC50 [3]: > 83 µM
selectivity ratio [4]: 1
IC50 [5]: > 83 µM

SMILES: CCc1ccccc1/N=C(\NCCN1CCOCC1)NC(=O)c1ccc(F)c(F)c1
Activity [6]: Active
Activity [7]: Active
Activity [8]: Active
Activity [9]: Active
cytotoxicity at 83 µM [2]: 86%
Activity [10]: Active
Activity [11]: Active
Activity [12]: Active
Activity [13]: Active
Activity [14]: Active
Activity [15]: Active
Activity [16]: Active
Activity [17]: Active
Activity [18]: Active
Activity [19]: Active
Activity [20]: Active
Activity [21]: Active
Activity [22]: Active
Activity [23]: Active
Activity [24]: Active
Activity [25]: inactive
IC50 [5]: 1.8 µM
Activity [26]: Active

SMILES: CCc1ccccc1/N=C(\NCCN1CCCC1)NC(=O)c1ccccc1
IC50 [5]: > 10 µM

SMILES: O=C(N/C(=N/c1ccccc1Br)NCCN1CCOCC1)c1ccccc1
Activity [6]: Active
Activity [7]: Active
Activity [27]: Active
Activity [8]: Active
Activity [9]: Active
Activity [10]: Active
Activity [11]: Active
Activity [12]: Active
Activity [13]: Active
Activity [14]: Active
Activity [15]: Active
Activity [16]: Active
Activity [17]: Active
Activity [18]: Active
Activity [19]: Active
Activity [20]: Active
IC50 [3]: > 83 µM
Activity [21]: Active
Activity [22]: Active
Activity [28]: Active
Activity [23]: Active
Activity [29]: Active
selectivity ratio [4]: > 19
Activity [30]: Active
Activity [24]: Active
Activity [25]: inactive
IC50 [5]: 4.2 µM
Activity [26]: Active

SMILES: O=C(N/C(=N/c1ccccc1C(F)(F)F)NCCN1CCOCC1)c1ccccc1
inhibition at 10 µM [1]: 59%
cytotoxicity at 83 µM [2]: 63%

SMILES: O=C(N/C(=N/c1ccccc1Cl)NCCN1CCOCC1)c1ccccc1
IC50 [3]: > 83 µM
selectivity ratio [4]: > 11
IC50 [5]: 7.5 µM

SMILES: CCc1ccccc1/N=C(\NCCN1CCOCC1)NC(=O)c1ccccc1Cl
IC50 [5]: > 10 µM

SMILES: CCc1ccccc1/N=C(\NCCN1CCCCC1)NC(=O)c1ccccc1
IC50 [5]: > 10 µM

SMILES: Cc1ccccc1/N=C(\NCCN1CCOCC1)NC(=O)c1ccccc1
Activity [6]: inactive
Activity [7]: inactive
Activity [27]: inactive
Activity [8]: inactive
inhibition at 10 µM [1]: 75%
Activity [12]: inactive
Activity [14]: inactive
Activity [15]: inactive
Activity [16]: inactive
Activity [18]: inactive
Activity [19]: inactive
IC50 [3]: > 83 µM
Activity [22]: inactive
Activity [28]: inactive
Activity [23]: inactive
Activity [29]: inactive
Activity [30]: inactive
Activity [25]: Active
Activity [31]: inactive
Activity [26]: inactive

SMILES: CCc1ccccc1/N=C(\NCCN(C)C)NC(=O)c1ccccc1
IC50 [5]: > 10 µM

SMILES: CCCc1ccc(C(=O)N/C(=N/c2ccccc2CC)NCCN2CCOCC2)cc1
IC50 [3]: > 83 µM
selectivity ratio [4]: > 9
IC50 [5]: 9 µM

SMILES: CCc1ccccc1/N=C(\NCCN1CCOCC1)NC(=O)c1cccc(C(C)=O)c1
IC50 [3]: > 83 µM
selectivity ratio [4]: 1
IC50 [5]: > 83 µM

SMILES: CCc1ccccc1/N=C(\NCCN1CCN(C)CC1)NC(=O)c1ccccc1
IC50 [5]: > 10 µM

SMILES: CCc1ccccc1/N=C(\NCCN1CCOCC1)NC(=O)c1ccc(F)cc1
Activity [6]: inactive
Activity [7]: inactive
Activity [27]: inactive
Activity [8]: inactive
Activity [12]: inactive
Activity [14]: inactive
Activity [15]: inactive
Activity [16]: inactive
Activity [18]: inactive
Activity [19]: inactive
IC50 [3]: > 83 µM
Activity [22]: inactive
Activity [28]: inactive
Activity [23]: inactive
Activity [29]: inactive
selectivity ratio [4]: 46
Activity [30]: inactive
Activity [25]: Active
Activity [31]: inactive
IC50 [5]: 1.8 µM
Activity [26]: inactive

SMILES: CCc1ccccc1/N=C(\NCCN1CCOCC1)NC(=O)c1cccc(F)c1
IC50 [3]: > 83 µM
selectivity ratio [4]: > 52
IC50 [5]: 1.6 µM

SMILES: CCc1ccccc1/N=C(\NCCN1CCOCC1)NC(=O)c1ccccc1C
IC50 [5]: > 10 µM

SMILES: CCc1ccccc1/N=C(\NCCN1CCOCC1)NC(=O)c1cccc(OC)c1
IC50 [3]: > 83 µM
selectivity ratio [4]: > 52
IC50 [5]: 1.6 µM

SMILES: CC(C)c1ccccc1/N=C(\NCCN1CCOCC1)NC(=O)c1ccccc1
inhibition at 10 µM [1]: 75%
cytotoxicity at 83 µM [2]: 63%

Now from value to compound, other results behind:

IC50 [5]: 8.7 µM
SMILES: CCc1ccccc1/N=C(\NCCN1CCOCC1)NC(=O)c1ccc(Br)cc1
IC50 [3]: > 83 µM
selectivity ratio [4]: > 9.5

IC50 [5]: > 10 µM
SMILES: O=C(N/C(=N/c1ccccc1F)NCCN1CCOCC1)c1ccccc1

IC50 [5]: > 10 µM
SMILES: CCc1ccccc1/N=C(\NCCN1CCOCC1)NC(=O)c1ccccc1Br

IC50 [5]: > 10 µM
SMILES: O=C(N/C(=N/c1ccccc1)NCCN1CCOCC1)c1ccccc1

IC50 [5]: 2.4 µM
SMILES: CCc1ccccc1/N=C(\NCCN1CCOCC1)NC(=O)c1ccc(F)c(C)c1
cytotoxicity at 83 µM [2]: 101%

IC50 [5]: > 10 µM
SMILES: CCc1ccccc1/N=C(\NCCCN1CCOCC1)NC(=O)c1ccccc1

IC50 [5]: 7 µM
SMILES: CCc1ccccc1/N=C(\NCCN1CCOCC1)NC(=O)c1ccccc1F
IC50 [3]: > 10 µM
selectivity ratio [4]: 1

IC50 [5]: > 10 µM
SMILES: N#Cc1ccccc1/N=C(\NCCN1CCOCC1)NC(=O)c1ccccc1

IC50 [5]: 9.4 µM
SMILES: CCc1ccccc1/N=C(\NCCN1CCOCC1)NC(=O)c1ccc(OC)cc1
IC50 [3]: > 83 µM
selectivity ratio [4]: > 8.8

IC50 [5]: 1.6 µM
SMILES: CCc1ccccc1/N=C(\NCCN1CCOCC1)NC(=O)c1ccc(Cl)cc1
IC50 [3]: > 83 µM
selectivity ratio [4]: > 52

IC50 [5]: > 10 µM
SMILES: CCc1ccccc1/N=C(\NCCN1CCOCC1)NC(=O)c1ccccc1OC

IC50 [5]: 10 µM
SMILES: CCc1ccccc1/N=C(\NCCN1CCOCC1)NC(=O)c1ccc(C(C)C)cc1
cytotoxicity at 83 µM [2]: 52%
